Results: PMC8793064, “Bioassay Guided Fractionation of Senna singueana and Its Potential for Development of Poultry Phytogenic Feed Additives” (Frontiers in Veterinary Science, 2022)
≈ marks a conversion by molar mass, not a printed value. Marks after values point to notes of the source that are not given here.

How the values were obtained:
[1] = system: Escherichia coli (ATCC 25922); experiment: MIC by serial two-fold microdilution; assay type: cell-based; details: ATCC25922, 24 h
Method: (§1) The four bacterial cultures were prepared by inoculating a single colony from an agar plate into 10 ml of sterilised Mueller-Hinton (MH) broth (Merck, South Africa) and incubating at 37°C in an MRC orbital shaker (150 rpm) incubator (United Scientific, South Africa) for 18 to 20 h prior to the experiment. Following incubation, each bacterial strain was diluted in MH broth (Merck, South Africa) and the absorbance was measured at a wavelength of 560 nm using a spectrophotometer (Epoch microplate reader: BioTek, United States).
(§2) The assay was performed in microtitre plates (Lasec, South Africa) by adding 100 μl of sterile water to all wells. In the first row, 100 μl of extract, fraction or compound were added in triplicate and serially diluted two-fold to the last well, from which 100 μl were then discarded. Gentamicin (Virbac, South Africa) was used as a positive control and a sterility control containing only water was included. This was followed by addition of 100 μl of the bacterial suspension to each well (except for the sterility control). The plates were sealed with parafilm and incubated at 37°C (IncoTherm, Labotec). After 24 h, 40 μl of a 0.2 mg/ml solution of INT was added to each well and the plate further incubated for at least half an hour to ensure adequate colour development. INT is a dehydrogenase activity detecting reagent, which is converted into an intensely coloured red-purple formazan by metabolically active micro-organisms. Inhibition of growth was indicated by a clear solution or a noticeable decrease in colour reaction. This value was taken as the MIC of the sample. The experiments were conducted twice.

[2] = system: Escherichia coli (clinical strain); experiment: MIC by serial two-fold microdilution; assay type: cell-based; details: 24 h
Method: as §1, §2

[3] = system: Staphylococcus aureus (ATCC 29213); experiment: MIC by serial two-fold microdilution; assay type: cell-based; details: ATCC29213, 24 h
Method: as §1, §2

[4] = system: Salmonella Enteritidis (ATCC 13076); experiment: MIC by serial two-fold microdilution; assay type: cell-based, Salmonella enterica subsp. enterica var. Enteritidis; details: Salmonella enterica, 24 h
Method: as §1
as §2, with “INT is a dehydrogenase activity detecting reagent, which is converted into an intensely coloured red-purple formazan by metabolically active micro-organisms. Inhibition of growth was indicated by a clear solution or a noticeable decrease in colour reaction. This value was taken as the MIC of the sample. The experiments were conducted twice.” left out

[5] = DPPH free radical assay; details: for DPPH IC50: 30 min, 516 nm; for DPPH IC50 obtained after log transformation of data: value in brackets, data not normally distributed
Method: The antioxidant activities of the samples were measured in terms of radical scavenging ability using the stable radical (DPPH) method of Brand-Williams et al. ([12]) with some modifications. Methanol solutions (40 μl) of the samples and positive controls (Trolox and ascorbic acid) at various concentrations (0.1–100 μg/ml) were prepared by serial dilution in a 96 well-microtitre plate. One hundred and sixty (160) μl of DPPH in methanol adjusted to an absorbance between 0.9 and 1.0 was added and the plates were incubated in the dark at room temperature (25°C) for 30 min. Absorbance was measured against a blank with a microtitre plate reader (Epoch, BioTek, United States) at 516 nm. The DPPH scavenging effect was determined using the following formula:
(1) DPPH Scavenging Effect(%)=[(A1-A2/A1)] × 100
Where A1 is the absorbance of the control reaction and A2 is the absorbance in the presence of the sample. Trolox and ascorbic acid were used as controls. The experiments were conducted twice.

[6] = ABTS free-radical-scavenging assay; details: for ABTS IC50: 6 min, 734 nm; for ABTS IC50 obtained after log transformation of data: value in brackets, data not normally distributed
Method: The free radical-scavenging activity as a measure of hydrogen donating capacity was determined by using the ABTS cation decolourization method of Re et al. ([16]) with some modifications. ABTS radical solution (7 μM) was prepared by dissolving 1.32 × 10^4 μg of ABTS in 10 ml of 50% methanolic solution and 7.68 × 10^4 μg of potassium persulphate ([…]) in 10 ml of distilled water. The two solutions were mixed together and made up to 200 ml with 50% methanolic solution, and kept in the dark at room temperature, 25°C for 12 h. Prior to running the assay, the ABTS radical solution was diluted with 50% methanolic solution to an absorbance between 0.7 and 0.8 at 734 nm. The samples were serially diluted (40 μl) (0.1–100 μg/ml) in 96 well-microtitre plates and 160 μl of ABTS radical solution was added to each well. The absorbance readings were taken after exactly 6 min of reaction and blanks were prepared using the respective samples without ABTS radical. The scavenging effect was calculated using the following formula:
(2) ABTS Scavenging Effect(%)=[(A1-A2/A1)] × 100
The IC50 values were calculated from a graph plotted as inhibition percentage against the concentration. A Trolox standard curve was drawn by plotting percentage inhibition of the ABTS+ radical against the concentration of Trolox. Data from the test samples were analysed in a similar manner.

[7] = in vitro; details: monkey
Method: (§4) The cytotoxic effect of the fractions and the isolated compounds was determined using an in vitro assay with Vero monkey kidney cells ([15]). The growth medium used was Minimal Essential Medium (MEM, Whitehead Scientific) supplemented with 0.1% gentamicin (Virbac) and 5% foetal calf serum (Highveld Biological). The cells were seeded at a density of 10 000 cells/per well in 96-well-microtitre plates. The plates were incubated at 37°C in a 5% CO2 incubator in a humidified environment for 24 h to allow cell attachment.
(§5) After incubation, the medium was aspirated and replaced with fresh MEM. The fractions/compounds (100 μl) of varying concentrations were added to the wells containing cells. The anticancer compound doxorubicin (Pfizer Laboratories) was used as a positive control. A suitable blank control with equivalent concentrations of fresh medium was also included and the plates were further incubated for 48 h in a CO2 incubator. Subsequently, the medium in each well was aspirated from the cells, which were washed with phosphate-buffered saline (PBS) and fresh medium was then added to each well. A 30 μl aliquot of MTT (5 mg/ml in PBS) was added to each well and the plates were incubated at 37°C for 4 h. The medium was then aspirated from wells and 50 μl DMSO was added to each well to solubilise the formed formazan crystals. The absorbance was measured on a BioTek Synergy microtitre plate reader at 570 nm. Cell growth inhibition for each extract was expressed in terms of LC50 values. […] The cytotoxicity assay was repeated thrice.

[8] = molecular target: T1, 15-LOX (Glycine max, UniProt P08170); experiment: biochemical
T1 construct: purchased Sigma Aldrich, Germany
T1 sequence (P08170 1-839): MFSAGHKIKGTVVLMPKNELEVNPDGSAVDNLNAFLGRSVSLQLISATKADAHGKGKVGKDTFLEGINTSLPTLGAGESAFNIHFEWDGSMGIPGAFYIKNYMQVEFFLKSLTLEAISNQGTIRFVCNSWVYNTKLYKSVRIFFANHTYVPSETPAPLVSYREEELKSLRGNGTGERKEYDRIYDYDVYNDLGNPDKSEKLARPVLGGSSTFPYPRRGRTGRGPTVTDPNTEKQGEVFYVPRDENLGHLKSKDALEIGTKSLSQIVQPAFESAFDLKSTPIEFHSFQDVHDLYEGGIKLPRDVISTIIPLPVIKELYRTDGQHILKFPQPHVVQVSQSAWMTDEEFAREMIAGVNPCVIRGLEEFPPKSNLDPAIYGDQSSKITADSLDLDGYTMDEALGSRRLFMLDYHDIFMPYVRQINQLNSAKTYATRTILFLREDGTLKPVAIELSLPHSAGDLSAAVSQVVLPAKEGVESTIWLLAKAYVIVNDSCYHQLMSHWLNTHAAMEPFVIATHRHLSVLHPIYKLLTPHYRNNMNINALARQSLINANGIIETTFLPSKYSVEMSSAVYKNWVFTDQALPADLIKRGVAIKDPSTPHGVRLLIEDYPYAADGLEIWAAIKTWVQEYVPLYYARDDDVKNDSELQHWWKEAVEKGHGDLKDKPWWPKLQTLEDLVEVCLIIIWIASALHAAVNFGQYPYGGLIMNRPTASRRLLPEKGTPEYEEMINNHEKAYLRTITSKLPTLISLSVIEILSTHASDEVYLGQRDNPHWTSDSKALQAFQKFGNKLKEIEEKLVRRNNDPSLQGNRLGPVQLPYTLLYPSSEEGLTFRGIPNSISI
Method: Lipoxygenase (LOX) activity of the samples was determined spectrophotometrically according to published methods ([17], [18]). LOX inhibition was determined spectrophotometrically based on the formation of the complex Fe3+/xylenol orange as described by Pinto et al. ([19]). Briefly, 20 μl of Tris-HCl buffer (pH 7.4) was added to all wells of the 96-well-microplates. This was followed by the addition of 20 μl of the fractions (1 or 0.5 mg/ml) in the first row of the plate which was serially diluted. […] After the serial dilution, 40 μl of the lipoxygenase enzyme (Sigma Aldrich, Germany) was added to each well and the plates were incubated at room temperature 25°C for 5 min. After incubation, 40 μl of linoleic acid (final concentration, 140 μM) prepared in Tris-HCl buffer (50 mM, pH 7.4) was added to the well (except for the blanks). The plates were incubated at 25°C for 20 min in the dark. After incubation, 100 μl of freshly prepared ferrous oxidation–xylenol orange (FOX) reagent [sulfuric acid (30 mM), xylenol orange (100 μM), iron (II) sulphate (100 μM) in methanol/water (9:1)] was added to all wells. The plates were further incubated at 25°C for 30 min in the dark, 40 μl of linoleic acid was then added to the blanks. The absorbance was measured at 560 nm. […] The experiments were conducted twice.

[9] = system: Escherichia coli (ATCC 25922); experiment: Antibacterial TLC bioautography; assay type: cell-based; details: E. coli
From the text: (§3) The compounds in the crude extract and fractions, as well as the purified compounds were developed as described above but the bioautograms were sprayed with respective cultures. After development, the TLC plates were dried overnight in a stream of cold air and sprayed with an actively growing concentrated suspension of strains of either Staphylococcus aureus (ATCC 29213), Salmonella enterica subsp. enterica var. Enteritidis (S. Enteritidis ATCC 13076) or Escherichia coli (ATCC 25922). The plates were dried and incubated overnight at 37°C in closed, sterile, humidified plastic containers to allow growth of the bacteria on the plates. After incubation, the plates were sprayed with a sterile 2 mg/ml solution of p-iodonitrotetrazolium (INT, Sigma-Aldrich) salt and incubated for a further 1 h. The presence of clear zones on the chromatogram after the incubation period indicated inhibition of growth as the INT is metabolised to a coloured formazan product by the actively growing cells ([11]). The retention factors of the bands of inhibition were calculated.

[10] = system: Staphylococcus aureus (ATCC 29213); experiment: Antibacterial TLC bioautography; assay type: cell-based; details: S. aureus
From the text: as §3

[11] = system: S. Enteritidis ATCC 13076; experiment: Antibacterial TLC bioautography; assay type: cell-based, Salmonella enterica subsp. enterica var. Enteritidis
From the text: as §3

[12] = Qualitative antioxidant activity, TLC sprayed with DPPH; details: TLC sprayed with DPPH 0.2% w/v
Method: TLC plates (10 × 20 cm, aluminium-backed, Merck, silica gel 60 F254) were loaded with 10 μl of the crude extract, fraction or compound (re-dissolved to 10 mg/ml) and dried before being developed in two mobile phase systems (CEF and EMW). […] A change of colour from the DPPH purple background to yellow indicated the presence of antioxidant compounds ([13]).

[13] = system: three ATCC strains and E. coli clinical strain; experiment: MIC by microdilution, stated over the whole panel of strains; assay type: cell-based
Method: as §1
as §2, with “INT is a dehydrogenase activity detecting reagent, which is converted into an intensely coloured red-purple formazan by metabolically active micro-organisms. Inhibition of growth was indicated by a clear solution or a noticeable decrease in colour reaction. This value was taken as the MIC of the sample. The experiments were conducted twice.” left out

[14] = system: Vero monkey kidney cells
Method: as §4, §5

Row | SMILES | MIC [1] | MIC [2] | MIC [3] | DPPH IC50 [5] | DPPH IC50 obtained after log transformation of data [5] | ABTS IC50 [6] | ABTS IC50 obtained after log transformation of data [6] | CC50 at 48 h [7] | further results
1 | CNC(C)C1CCC(N)C(OC2C(N)CC(N)C(OC3OCC(C)(O)C(NC)C3O)C2O)O1 (stereo not drawn) [Gentamicin, reference compound] | 20 µg/mL (≈ 41.9 µM) | 20 µg/mL (≈ 41.9 µM) | 20 µg/mL (≈ 41.9 µM) | – | – | – | – | – | MIC [4]: 20 µg/mL (≈ 41.9 µM)
2 | O=C1O[C@H]([C@@H](O)CO)C(O)=C1O [Ascorbic acid, ascorbic acid] | – | – | – | 1.97 ± 0.21 µg/mL | 2.45 μg/ml | 1.90 ± 0.07 µg/mL | 2.45 μg/ml | – | –
3 | COc1cccc2c1C(=O)c1c(O)c3c(c(O)c1C2=O)C[C@@](O)(C(=O)CO)C[C@@H]3O[C@H]1C[C@H](N)[C@H](O)[C@H](C)O1 [Doxorubicin, doxorubicin, reference compound] | – | – | – | – | – | – | – | 9 ± 1.28 µg/mL (≈ 16.6 µM) | –
4 | O=c1cc(-c2ccc(O)c(O)c2)oc2cc(O)cc(O)c12 [Compound 1, luteolin] | 156 µg/mL (≈ 545 µM) | 156 µg/mL (≈ 545 µM) | 625 µg/mL (≈ 2180 µM) | 5.92 ± 0.64^a μg/ml | – | 8.17 ± 0.80^a μg/ml | – | 92.9 ± 1.7 µg/mL (≈ 325 µM) | IC50 [8]: 25.8 µM; antibacterial activity in bioautography [9]: active; antibacterial activity in bioautography [10]: active; antibacterial activity in bioautography [11]: active; antioxidant activity in bioautography (DPPH bleaching) [12]: antioxidant activity; MIC ([13]; Escherichia coli, three ATCC strains and E. coli clinical strain, read-out: MIC values over the tested strains): > 100 µg/mL; antibacterial activity class ([13]; all the tested bacterial strains): weak (values >625 μg/ml indicate weak activity); cytotoxicity class [14]: moderate
5 | Cc1c(C)c2c(c(C)c1O)CCC(C)(C(=O)O)O2 (stereo not drawn) [Trolox] | – | – | – | 3.19 ± 0.32 µg/mL | 4.02 μg/ml | 2.21 ± 0.30 µg/mL | 2.76 μg/ml | – | –
